PubChem BioAssay (NCI)
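Results reflect a 48-hour exposure of cells in 96-well plates to compound at five concentrations. At the GI50, growth is halved. The concentration for full growth arrest is given as TGI.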

Experiments:
Test in all cases: NCI tumour cell line growth inhibition, 48 h
786-0 renal = test system: 786-0 renal
A498 renal = test system: A498 renal
A549 NSCLC = test system: A549 NSCLC
ACHN renal = test system: ACHN renal
BT-549 breast = test system: BT-549 breast
CCRF-CEM leukemia = test system: CCRF-CEM leukemia
COLO 205 colon = test system: COLO 205 colon
DU-145 prostate = test system: DU-145 prostate
EKVX NSCLC = test system: EKVX NSCLC
HCC-2998 colon = test system: HCC-2998 colon
HCT-116 colon = test system: HCT-116 colon
HCT-15 colon = test system: HCT-15 colon
HL-60(TB) leukemia = test system: HL-60(TB) leukemia
HOP-62 NSCLC = test system: HOP-62 NSCLC
HOP-92 NSCLC = test system: HOP-92 NSCLC
HS 578T breast = test system: HS 578T breast
HT29 colon = test system: HT29 colon
IGROV1 ovarian = test system: IGROV1 ovarian
K-562 leukemia = test system: K-562 leukemia
KM12 colon = test system: KM12 colon
LOX IMVI melanoma = test system: LOX IMVI melanoma
M14 melanoma = test system: M14 melanoma
MALME-3M melanoma = test system: MALME-3M melanoma
MCF7 breast = test system: MCF7 breast
MDA-MB-231 breast = test system: MDA-MB-231 breast
MDA-MB-435 = test system: MDA-MB-435
MOLT-4 leukemia = test system: MOLT-4 leukemia
NCI-H226 lung = test system: NCI-H226 lung
NCI-H23 lung = test system: NCI-H23 lung
NCI-H460 lung = test system: NCI-H460 lung
NCI-H522 lung = test system: NCI-H522 lung
NCI/ADR-RES ovarian = test system: NCI/ADR-RES ovarian
OVCAR-3 ovarian = test system: OVCAR-3 ovarian
OVCAR-4 ovarian = test system: OVCAR-4 ovarian
OVCAR-5 ovarian = test system: OVCAR-5 ovarian
OVCAR-8 ovarian = test system: OVCAR-8 ovarian
PC-3 prostate = test system: PC-3 prostate
RPMI-8226 leukemia = test system: RPMI-8226 leukemia
RXF 393 renal = test system: RXF 393 renal
SF-268 CNS = test system: SF-268 CNS
SF-295 CNS = test system: SF-295 CNS
SF-539 CNS = test system: SF-539 CNS
SK-MEL-2 melanoma = test system: SK-MEL-2 melanoma
SK-MEL-28 melanoma = test system: SK-MEL-28 melanoma
SK-MEL-5 melanoma = test system: SK-MEL-5 melanoma
SK-OV-3 ovarian = test system: SK-OV-3 ovarian
SN12C renal = test system: SN12C renal
SNB-19 CNS = test system: SNB-19 CNS
SNB-75 CNS = test system: SNB-75 CNS
SR leukemia = test system: SR leukemia
SW-620 colon = test system: SW-620 colon
T-47D breast = test system: T-47D breast
U251 CNS = test system: U251 CNS
UACC-257 melanoma = test system: UACC-257 melanoma
UACC-62 melanoma = test system: UACC-62 melanoma
UO-31 renal = test system: UO-31 renal

## Cc1ccc(-c2csc(NC(=O)CN3CCN(c4cc5c(cc4F)c(=O)c(C(=O)O)cn5C4CC4)CC3)n2)cc1
786-0 renal
  GI50: 500 nM
  TGI: 15200 nM
A498 renal
  GI50: 1020 nM
  TGI: 10300 nM
A549 NSCLC
  GI50: 433 nM
  TGI: 13900 nM
ACHN renal
  GI50: 2580 nM
  TGI: 14300 nM
BT-549 breast
  GI50: 358 nM
  TGI: 10700 nM
CCRF-CEM leukemia
  GI50: 569 nM
  TGI: > 100000 nM
COLO 205 colon
  GI50: 1660 nM
  TGI: 3750 nM
DU-145 prostate
  GI50: 513 nM
  TGI: > 100000 nM
EKVX NSCLC
  GI50: 1530 nM
  TGI: 23900 nM
HCC-2998 colon
  GI50: 2040 nM
  TGI: > 100000 nM
HCT-116 colon
  GI50: 348 nM
  TGI: 14800 nM
HCT-15 colon
  GI50: 441 nM
  TGI: > 100000 nM
HL-60(TB) leukemia
  GI50: 1470 nM
  TGI: 3940 nM
HOP-62 NSCLC
  GI50: 393 nM
  TGI: 14600 nM
HOP-92 NSCLC
  GI50: 1130 nM
  TGI: 5130 nM
HS 578T breast
  GI50: 749 nM
  TGI: 31700 nM
HT29 colon
  GI50: 326 nM
  TGI: 6910 nM
IGROV1 ovarian
  GI50: 739 nM
  TGI: 17000 nM
K-562 leukemia
  GI50: 771 nM
  TGI: > 100000 nM
KM12 colon
  GI50: 508 nM
  TGI: > 100000 nM
LOX IMVI melanoma
  GI50: 482 nM
  TGI: 29200 nM
M14 melanoma
  GI50: 1630 nM
  TGI: 32900 nM
MALME-3M melanoma
  GI50: 1750 nM
  TGI: 7140 nM
MCF7 breast
  GI50: 638 nM
  TGI: > 100000 nM
MDA-MB-231 breast
  GI50: 2080 nM
  TGI: 13700 nM
MDA-MB-435
  GI50: 1770 nM
  TGI: > 100000 nM
MOLT-4 leukemia
  GI50: 1230 nM
  TGI: > 100000 nM
NCI-H226 lung
  GI50: 2510 nM
  TGI: 9410 nM
NCI-H23 lung
  GI50: 390 nM
  TGI: 13300 nM
NCI-H460 lung
  GI50: 368 nM
  TGI: 17100 nM
NCI-H522 lung
  GI50: 322 nM
  TGI: 3090 nM
NCI/ADR-RES ovarian
  GI50: 3060 nM
  TGI: 34000 nM
OVCAR-3 ovarian
  GI50: 457 nM
  TGI: 15700 nM
OVCAR-4 ovarian
  GI50: 2380 nM
  TGI: > 100000 nM
OVCAR-5 ovarian
  GI50: 3480 nM
  TGI: 39800 nM
OVCAR-8 ovarian
  GI50: 388 nM
  TGI: 11700 nM
PC-3 prostate
  GI50: 504 nM
  TGI: > 100000 nM
RPMI-8226 leukemia
  GI50: 331 nM
  TGI: 1470 nM
RXF 393 renal
  GI50: 633 nM
  TGI: 17800 nM
SF-268 CNS
  GI50: 493 nM
  TGI: > 100000 nM
SF-295 CNS
  GI50: 1150 nM
  TGI: 13900 nM
SF-539 CNS
  GI50: 819 nM
  TGI: 18200 nM
SK-MEL-2 melanoma
  GI50: 1330 nM
  TGI: 4090 nM
SK-MEL-28 melanoma
  GI50: 1940 nM
  TGI: > 100000 nM
SK-MEL-5 melanoma
  GI50: 1020 nM
  TGI: 2890 nM
SK-OV-3 ovarian
  GI50: 1300 nM
  TGI: 5520 nM
SN12C renal
  GI50: 413 nM
  TGI: 15400 nM
SNB-19 CNS
  GI50: 870 nM
  TGI: 27000 nM
SNB-75 CNS
  GI50: 448 nM
  TGI: 11200 nM
SR leukemia
  GI50: 645 nM
  TGI: 6870 nM
SW-620 colon
  GI50: 950 nM
  TGI: > 100000 nM
T-47D breast
  GI50: 1160 nM
  TGI: 6020 nM
U251 CNS
  GI50: 388 nM
  TGI: 13400 nM
UACC-257 melanoma
  GI50: 1910 nM
  TGI: 6180 nM
UACC-62 melanoma
  GI50: 1260 nM
  TGI: 13100 nM
UO-31 renal
  GI50: 1040 nM
  TGI: 41100 nM
